The target of test [1] is T1, ACE-2 (Homo sapiens, UniProt Q9BYF1).
T1 construct: a stop codon inserted after the serine immediately preceding the transmembrane domain; made in house; host or cells: CHO K1 cells (transient transfection, purified from conditioned medium)
The experiment in a line: ACE-2 Competitive Substrate Assay (ACS Assay). The class given is biochemical. Particulars: Ki class; compounds tested in 5% DMSO, 12 concentrations; read-out: Human ACE-2 Activity.

Test [2] concerns the target ACE-2 (Rattus norvegicus, UniProt Q5EGZ1). The test is described as follows: ACE-2 Competitive Substrate Assay, rat ACE-2. Particulars: Ki class; compounds tested in 5% DMSO, 12 concentrations. Type of test: biochemical.
A further test has as its target T2, Carboxypeptidase A (Bos taurus, UniProt P00730).
T2 sequence (P00730 111-419): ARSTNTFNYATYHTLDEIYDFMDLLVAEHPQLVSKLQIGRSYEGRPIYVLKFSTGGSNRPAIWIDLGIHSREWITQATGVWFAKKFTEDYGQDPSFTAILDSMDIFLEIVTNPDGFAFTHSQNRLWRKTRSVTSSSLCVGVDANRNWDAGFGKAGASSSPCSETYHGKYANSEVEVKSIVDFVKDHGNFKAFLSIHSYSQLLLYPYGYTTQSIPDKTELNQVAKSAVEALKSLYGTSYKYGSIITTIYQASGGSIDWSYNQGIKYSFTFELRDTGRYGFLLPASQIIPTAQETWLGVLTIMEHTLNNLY
The test is described as follows: Carboxypeptidase A activity assay. The class given is biochemical. Particulars: Ki class; compounds tested in 5% DMSO, 12 concentrations. A digest of the protocol: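 Ki obtained by correcting apparent Ki for substrate, Ki=Kiapp/(1+[S]/Km), from 12-concentration series. Enzyme activity read by absorbance at 328 nm with 5% DMSO present, EDTA stop.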

A further test has as its target T3, ACE (Sigma, A2580) (Sus scrofa, UniProt F1RRW5).
T3 construct: ACE from porcine kidney; purchased Sigma A2580; host or cells: porcine kidney
T3 sequence (F1RRW5 34-1309): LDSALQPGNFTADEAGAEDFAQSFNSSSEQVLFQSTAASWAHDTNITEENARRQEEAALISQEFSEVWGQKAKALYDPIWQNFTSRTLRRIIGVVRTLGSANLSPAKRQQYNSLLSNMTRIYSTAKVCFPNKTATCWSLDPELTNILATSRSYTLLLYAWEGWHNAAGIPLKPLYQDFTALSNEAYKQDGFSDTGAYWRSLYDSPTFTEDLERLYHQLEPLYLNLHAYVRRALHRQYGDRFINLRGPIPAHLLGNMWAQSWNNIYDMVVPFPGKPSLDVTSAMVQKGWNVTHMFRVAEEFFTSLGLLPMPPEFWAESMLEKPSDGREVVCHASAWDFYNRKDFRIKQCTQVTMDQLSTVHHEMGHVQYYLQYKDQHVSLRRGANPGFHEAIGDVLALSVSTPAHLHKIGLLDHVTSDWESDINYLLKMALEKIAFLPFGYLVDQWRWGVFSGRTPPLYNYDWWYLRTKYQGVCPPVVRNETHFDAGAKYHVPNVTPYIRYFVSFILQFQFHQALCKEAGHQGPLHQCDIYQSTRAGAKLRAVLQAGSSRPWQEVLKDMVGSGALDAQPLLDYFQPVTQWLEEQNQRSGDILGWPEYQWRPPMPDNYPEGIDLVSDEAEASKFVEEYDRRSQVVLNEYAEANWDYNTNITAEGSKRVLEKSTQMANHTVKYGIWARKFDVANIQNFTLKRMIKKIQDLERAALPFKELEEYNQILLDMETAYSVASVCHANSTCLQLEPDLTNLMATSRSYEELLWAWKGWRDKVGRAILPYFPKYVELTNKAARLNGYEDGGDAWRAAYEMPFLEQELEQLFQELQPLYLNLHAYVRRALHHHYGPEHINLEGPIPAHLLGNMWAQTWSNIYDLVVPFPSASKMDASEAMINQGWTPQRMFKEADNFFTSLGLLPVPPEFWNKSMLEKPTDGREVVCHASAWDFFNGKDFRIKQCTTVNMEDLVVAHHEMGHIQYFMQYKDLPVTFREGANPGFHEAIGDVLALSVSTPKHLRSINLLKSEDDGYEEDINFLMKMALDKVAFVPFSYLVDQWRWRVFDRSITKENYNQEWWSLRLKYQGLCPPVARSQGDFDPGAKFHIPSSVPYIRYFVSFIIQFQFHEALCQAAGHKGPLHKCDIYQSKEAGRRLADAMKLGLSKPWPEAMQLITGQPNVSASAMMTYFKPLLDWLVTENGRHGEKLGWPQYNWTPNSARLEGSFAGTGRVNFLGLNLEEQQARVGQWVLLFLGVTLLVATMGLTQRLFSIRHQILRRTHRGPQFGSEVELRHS
The test is described as follows: ACE enzymatic activity assay. The class given is biochemical, porcine. Particulars: Ki class; compounds tested in 5% DMSO, 12 concentrations. A digest of the protocol:
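Fluorogenic substrate cleavage by 1 nM ACE, read at 320/405 nm after EDTA stop at ~30 min. Reactions at 25 °C, pH 7.5, in HEPES/NaCl/Brij-35 buffer; compounds tested at 12 concentrations in 5% DMSO.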

Where only a bound is given, the exact number is not on record here.

Chain of ACE-2 (Rattus norvegicus, UniProt Q5EGZ1) (Q5EGZ1 18-805): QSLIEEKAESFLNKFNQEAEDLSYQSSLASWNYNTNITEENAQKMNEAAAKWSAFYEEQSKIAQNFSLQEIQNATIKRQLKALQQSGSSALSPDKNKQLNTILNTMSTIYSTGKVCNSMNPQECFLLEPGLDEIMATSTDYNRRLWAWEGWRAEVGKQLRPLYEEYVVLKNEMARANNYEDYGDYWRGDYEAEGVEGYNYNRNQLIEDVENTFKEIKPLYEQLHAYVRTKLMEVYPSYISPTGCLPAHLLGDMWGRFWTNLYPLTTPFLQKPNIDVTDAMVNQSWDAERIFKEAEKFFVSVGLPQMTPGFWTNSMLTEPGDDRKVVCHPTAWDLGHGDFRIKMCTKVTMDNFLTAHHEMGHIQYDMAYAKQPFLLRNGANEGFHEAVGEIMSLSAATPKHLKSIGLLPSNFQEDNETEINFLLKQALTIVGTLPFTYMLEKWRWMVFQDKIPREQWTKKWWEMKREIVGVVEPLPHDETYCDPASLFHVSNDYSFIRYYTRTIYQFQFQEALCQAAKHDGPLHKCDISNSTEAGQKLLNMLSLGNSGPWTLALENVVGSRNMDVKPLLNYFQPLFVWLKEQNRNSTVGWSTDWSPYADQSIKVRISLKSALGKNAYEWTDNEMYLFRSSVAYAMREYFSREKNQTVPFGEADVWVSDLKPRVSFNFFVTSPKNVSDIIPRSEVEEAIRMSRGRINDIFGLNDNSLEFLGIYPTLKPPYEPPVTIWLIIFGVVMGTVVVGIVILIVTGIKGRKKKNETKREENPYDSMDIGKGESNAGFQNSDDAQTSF
T1 sequence (Q9BYF1 18-740 limits assumed): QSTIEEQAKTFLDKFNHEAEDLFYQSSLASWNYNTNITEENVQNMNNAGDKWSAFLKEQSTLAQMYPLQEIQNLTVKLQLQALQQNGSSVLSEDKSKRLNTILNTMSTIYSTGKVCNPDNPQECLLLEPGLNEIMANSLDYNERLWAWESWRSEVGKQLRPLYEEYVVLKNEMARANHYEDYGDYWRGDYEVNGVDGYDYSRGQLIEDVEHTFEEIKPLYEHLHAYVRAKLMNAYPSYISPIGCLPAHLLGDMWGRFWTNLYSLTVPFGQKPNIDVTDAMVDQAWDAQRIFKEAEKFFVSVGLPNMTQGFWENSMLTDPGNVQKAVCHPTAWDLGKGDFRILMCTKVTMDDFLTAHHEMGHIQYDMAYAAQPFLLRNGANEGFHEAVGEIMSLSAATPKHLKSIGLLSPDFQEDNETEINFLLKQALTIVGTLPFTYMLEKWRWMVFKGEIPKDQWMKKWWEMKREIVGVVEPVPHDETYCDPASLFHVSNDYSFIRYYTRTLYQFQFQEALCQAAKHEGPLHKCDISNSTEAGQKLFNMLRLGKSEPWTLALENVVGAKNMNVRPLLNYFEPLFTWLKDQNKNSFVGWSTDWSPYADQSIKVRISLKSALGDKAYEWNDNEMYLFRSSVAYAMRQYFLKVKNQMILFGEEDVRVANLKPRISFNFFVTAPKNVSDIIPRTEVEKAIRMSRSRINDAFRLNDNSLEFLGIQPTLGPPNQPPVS

In the case of `CC(C)CC(N[C@H](Cc1cn(Cc2ccccc2)cn1)C(=O)O)C(=O)O` (stereo in doubt) [CW, 2-[2-(1-Benzyl-1H-imidazol-4-yl)-1-carboxy-ethylamino]-4-methyl-pentanoic acid], the Ki on ACE-2 [1] was more than 0.5 µM; at ACE-2 [2], more than 0.5 µM; at Carboxypeptidase A, more than 50 µM; on ACE (Sigma, A2580), more than 50 µM.

With `CC(C)CC(N[C@@H](Cc1cn(-c2ccc([N+](=O)[O-])cc2[N+](=O)[O-])cn1)C(=O)O)C(=O)O` (stereo in doubt) [EG, 2-[1-Carboxy-2-[1-(2,4-dinitro-phenyl)-1H-imidazol-4-yl]-ethylamino)4-methyl-pentanoic acid], the Ki at ACE-2 [1] is more than 0.5 µM; at ACE-2 [2], more than 0.5 µM; at Carboxypeptidase A, more than 50 µM; on ACE (Sigma, A2580) it was 10 to 50 µM.

As for `CC(C)CC(N[C@H](CN(C)Cc1ccccc1)C(=O)O)C(=O)O` (stereo in doubt) [FU, 2-[2-(Benzyl-methyl-amino)-1-carboxy-ethylamino]-4-methyl-pentanoic acid], the Ki on ACE-2 [1] is more than 0.5 µM; on ACE-2 [2] it was more than 0.5 µM; on Carboxypeptidase A, more than 50 µM; at ACE (Sigma, A2580), more than 50 µM.

On to `CC(C)C[C@H](NC(CN(C)c1ccccc1)C(=O)O)C(=O)O` (stereo partly drawn) [AP, 2-[1-Carboxy-2-(methyl-phenyl-amino)-ethylamino]-4-methyl-pentanoic acid], for which the Ki was more than 0.5 µM at ACE-2 [1]; 0.1 to 0.5 µM on ACE-2 [2]; 10 to 50 µM at Carboxypeptidase A; more than 50 µM on ACE (Sigma, A2580).

On to `CC(C)[C@H](NC(CCc1ccccc1)C(=O)O)C(=O)O` (stereo partly drawn) [AS, 2-(1-Carboxy-3-phenyl-propylamino)-3-methyl-butync acid], for which the Ki at ACE-2 [1] was more than 0.5 µM; on ACE-2 [2], more than 0.5 µM; on Carboxypeptidase A it was more than 50 µM; on ACE (Sigma, A2580), more than 50 µM.

As to `O=C(O)C[C@H](NC(CCc1ccccc1)C(=O)O)C(=O)O` (stereo partly drawn) [AZ, 2-(1-Carboxy-3-phenyl-propylamino)-succinicacid], the Ki at ACE-2 [1] is more than 0.5 µM; at ACE-2 [2], more than 0.5 µM; at Carboxypeptidase A, more than 50 µM; on ACE (Sigma, A2580) it was more than 50 µM.

`CC(C)CC(N[C@H](Cc1c[nH]cn1)C(=O)O)C(=O)O` (stereo partly drawn) [BB, 2-[1-Carboxy-2-(1H-imidazol-4-yl)-ethylamino]4-methyl-pentanoic acid]: the Ki at ACE-2 [1] was more than 0.5 µM; on ACE-2 [2] it was more than 0.5 µM; on Carboxypeptidase A, more than 50 µM; at ACE (Sigma, A2580), less than 10 µM.

Take `CCCC(N[C@H](Cc1c[nH]cn1)C(=O)O)C(=O)O` (stereo partly drawn) [BC, 2-[1-Carboxy-2-(1H-imidazol-4-yl)-ethylamino]pentanoic-acid]: the Ki was more than 0.5 µM at ACE-2 [1]; more than 0.5 µM at ACE-2 [2]; more than 50 µM on Carboxypeptidase A; 10 to 50 µM at ACE (Sigma, A2580).

As for `CC(N[C@H](Cc1c[nH]cn1)C(=O)O)C(=O)O` (stereo partly drawn) [BD, 2-(1-carboxy-ethylamino)-3-(1H-imidazol-4-yl)-propionic acid], the Ki on ACE-2 [1] is more than 0.5 µM; at ACE-2 [2], more than 0.5 µM; at Carboxypeptidase A it was more than 50 µM; at ACE (Sigma, A2580), more than 50 µM.

As to `CC(C)CC(NC(Cc1ccccn1)C(=O)O)C(=O)O` (stereo not drawn) [BF, 2-(1-Carboxy-2-pyridin-2-yl-ethylamino)-4-methyl-pentanoic acid], the Ki at ACE-2 [1] was more than 0.5 µM; on ACE-2 [2], 0.1 to 0.5 µM; at Carboxypeptidase A, more than 50 µM; on ACE (Sigma, A2580) it was more than 50 µM.

`COc1ccc(C(N[C@@H](CC(C)C)C(=O)O)C(=O)O)cc1` (stereo partly drawn) [BQ, 2-[(Carboxy-(4-methoxy-phenyl)-methyl]-amino]-4-methyl-pentanoic acid]: the Ki at ACE-2 [1] was more than 0.5 µM; on ACE-2 [2] it was more than 0.5 µM; on Carboxypeptidase A it was more than 50 µM; on ACE (Sigma, A2580), more than 50 µM.

Regarding `CC(C)C[C@H](NC(C(=O)O)c1ccc2ccccc2c1)C(=O)O` (stereo partly drawn) [BR, 2-[(Carboxy-naphthalen-2-yl-methyl)-amino]-4-methyl-pentanoic acid], the Ki at ACE-2 [1] is more than 0.5 µM; on ACE-2 [2], more than 0.5 µM; on Carboxypeptidase A, more than 50 µM; at ACE (Sigma, A2580), more than 50 µM.

Values taken from patent US7045532B2 (Millennium Pharmaceuticals, Inc., priority 1999, dated 2006).
